# Results as given in patent US20250230153A1, “2,3-DIHYDROBENZO[B][1,4]DIOXIN-6-YL CONTAINING COMPOUNDS USEFUL AS IMMUNOMODULATORS” (BRISTOL-MYERS SQUIBB COMPANY, priority 2021, published 2025).
# pIC50: −log10 of the molar value. Counter-ions that a name gives are not always drawn.
# Molecular target: PD-1/PD-L1 (Homo sapiens (Human), UniProt Q9NZQ7)
# Experiment: PD-1/PD-L1 Homogenous Time-Resolved Fluorescence (HTRF) binding assay
# Conditions: PD-1-Ig (20 nM final)/PD-L1-His (10 nM final) binding assay
# Description: The ability of the compounds of the invention to bind to PD-L1 was investigated using a PD-1/PD-L1 Homogenous Time-Resolved Fluorescence (HTRF) binding assay.
# The interaction of PD-1 and PD-L1 can be assessed using soluble, purified preparations of the extracellular domains of the two proteins. The PD-1 and PD-L1 protein extracellular domains were expressed as fusion proteins with detection tags, for PD-1, the tag was the Fc portion of Immunoglobulin (PD-1-Ig) and for PD-L1 it was the 6 histidine motif (PD-L1-His). All binding studies were performed in an HTRF assay buffer consisting of dPBS supplemented with 0.1% […] bovine serum albumin and 0.05% (v/v) Tween-20. For the h/PD-L1-His binding assay, inhibitors were pre-incubated with PD-L1-His (10 nM final) for 15m in 4 μl of assay buffer, followed by addition of PD-1-Ig (20 nM final) in 1 μl of assay buffer and further incubation for 15 m. HTRF detection was achieved using europium crypate-labeled anti-Ig (1 nM final) and allophycocyanin (APC) labeled anti-His (20 nM final). Antibodies were diluted in HTRF detection buffer and 5 μl was dispensed on top of the binding reaction. The reaction mixture was allowed to equilibrate for 30 minutes and the resulting signal (665 nm/620 nm ratio) was obtained using an EnVision fluorometer. Additional binding assays were established between the human proteins PD-1-Ig/PD-L2-His (20 & 5 nM, respectively) and CD80-His/PD-L1-Ig (100 & 10 nM, respectively).
# Recombinant Proteins: Human PD-1 (25-167) with a C-terminal human Fc domain of immunoglobulin G (Ig) epitope tag [hPD-1 (25-167)-3S-IG] and human PD-L1 (18-239) with a C-terminal His epitope tag [hPD-L1(18-239)-TVMV-His] were expressed in HEK293T cells and purified sequentially by ProteinA affinity chromatography and size exclusion chromatography. Human PD-L2-His and CD80-His was obtained through commercial sources.
# Homogenous Time-Resolved Fluorescence (HTRF) Assays of Binding of Soluble PD-1 to Soluble PD-L1. Soluble PD-1 and soluble PD-L1 refers to proteins with carboxyl-end truncations that remove the transmembrane-spanning regions and are fused to heterologous sequences, specifically the Fc portion of the human immunoglobuling G sequence (Ig) or the hexahistidine epitope tag (His). All binding studies were performed in an HTRF assay buffer consisting of dPBS supplemented with 0.1% (w/v) bovine serum albumin and 0.05% (v/v) Tween-20. For the PD-1-Ig/PD-L1-His binding assay, inhibitors were pre-incubated with PD-L1-His (10 nM final) for 15m in 4 μl of assay buffer, followed by addition of PD-1-Ig (20 nM final) in 1 μl of assay buffer and further incubation for 15 m. PD-L1 fusion proteins from either human, cynomologous macaques, mouse, or other species were used. HTRF detection was achieved using europium crypate-labeled anti-Ig monoclonal antibody (1 nM final) and allophycocyanin (APC) labeled anti-His monoclonal antibody (20 nM final). Antibodies were diluted in HTRF detection buffer and 5 μl was dispensed on top of binding reaction. The reaction was allowed to equilibrate for 30 minutes and signal (665 nm/620 nm ratio) was obtained using an EnVision fluorometer. Additional binding assays were established between PD-1-Ig/PD-L2-His (20 and 5 nM, respectively), CD80-His/PD-L1-Ig (100 and 10 nM, respectively) and CD80-His/CTLA4-Ig (10 and 5 nM, respectively).
# Recombinant Proteins. Carboxyl-truncated human PD-1 (amino acids 25-167) with a C-terminal human Ig epitope tag [hPD-1 (25-167)-3S-IG] and human PD-L1 (amino acids 18-239) with a C-terminal His epitope tag [hPD-L1(19-239)-tobacco vein mottling virus protease cleavage site (TVMV)-His] were expressed in HEK293T cells and purified sequentially by recombinant Protein A affinity chromatography and size exclusion chromatography. Human PD-L2-His (Sino Biologicals), CD80-His (Sino Biologicals), CTLA4-Ig (RnD Systems) were all obtained through commercial sources.
# Chain of PD-1/PD-L1 (Q9NZQ7 18-239): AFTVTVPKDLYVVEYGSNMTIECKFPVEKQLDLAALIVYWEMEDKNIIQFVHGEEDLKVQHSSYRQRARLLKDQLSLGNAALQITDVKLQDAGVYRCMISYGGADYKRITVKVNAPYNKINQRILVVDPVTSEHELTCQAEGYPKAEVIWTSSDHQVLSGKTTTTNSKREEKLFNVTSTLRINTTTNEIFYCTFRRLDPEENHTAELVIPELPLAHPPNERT
row,Structure (SMILES),pIC50
1,"COC(=O)C1(O)CCN(CCOc2cc(OCc3cccc(-c4ccc5c(c4)OCCO5)c3C)c(Cl)cc2CNC(C)(CO)CO)CC1 [Example 1053, Methyl 1-(2-(4-chloro-5-((3-(2,3-dihydrobenzo[b][1,4]dioxin-6-yl)-2-methylbenzyl)oxy)-2-(((1,3-dihydroxy-2-methylpropan-2-yl)amino)methyl)phenoxy)ethyl)-4-hydroxypiperidine-4-carboxylate]",8.85
2,"Cc1c(COc2cc(OCc3cncc(S(=O)(=O)CCC(=O)O)c3)c(CN3CCCC[C@H]3C(=O)O)cc2Cl)cccc1-c1ccc2c(c1)OCCO2 [Example 1012, (S)-1-(2-((5-((2-Carboxyethyl)sulfonyl)pyridin-3-yl)methoxy)-5-chloro-4-((3-(2,3-dihydrobenzo[b]1[1,4]dioxin-6-yl)-2-methylbenzyl)oxy)benzyl)piperidine-2-carboxylic acid]",8.52
3,"Cc1c(COc2cc(OCCN3CCCC(O)(C(F)(F)F)C3)c(CNC(C)(CO)CO)cc2Cl)cccc1-c1ccc2c(c1)OCCO2 (centres unmarked) [Example 1059, 2-((5-Chloro-4-((3-(2,3-dihydrobenzo[b][1,4]dioxin-6-yl)-2-methylbenzyl)oxy)-2-(2-(3-hydroxy-3-(trifluoromethyl)piperidin-1-yl)ethoxy)benzyl)amino)-2-methylpropane-1,3-diol]",8.66
4,"Cc1c(COc2cc(OCCCCN3CC[C@@H](O)C3)c(CN[C@](C)(CO)C(=O)O)cc2Cl)cccc1-c1ccc2c(c1)OCCO2 [Example 1026, (R)-2-((5-Chloro-4-((3-(2,3-dihydrobenzo[b][1,4]dioxin-6-yl)-2-methylbenzyl)oxy)-2-(4-((R)-3-hydroxypyrrolidin-1-yl)butoxy)benzyl)amino)-3-hydroxy-2-methylpropanoic acid]",8.66
5,"Cc1c(COc2cc(OCC3CCOCC3)c(CNC(C)(CO)CO)cc2Cl)cccc1-c1ccc2c(c1)OCCO2 [Example 1047, 2-((5-Chloro-4-((3-(2,3-dihydrobenzo[b][1,4]dioxin-6-yl)-2-methylbenzyl)oxy)-2-((tetrahydro-2H-pyran-4-yl)methoxy)benzyl)amino)-2-methylpropane-1,3-diol]",8.27
6,"Cc1c(COc2cc(OCc3cncc(C(=O)N[C@@H](CO)C(=O)O)c3)c(CN3CC[C@H](O)C3)cc2Cl)cccc1-c1ccc2c(c1)OCCO2 [Example 2009, (S)-2-(5-((4-chloro-5-((3-(2,3-dihydrobenzo[b][1,4]dioxin-6-yl)-2-methylbenzyl)oxy)-2-(((S)-3-hydroxypyrrolidin-1-yl)methyl)phenoxy)methyl)nicotinamido)-3-hydroxypropanoic acid]",8.34
7,"Cc1c(COc2cc(OCc3cccc(CN)c3)c(CN3CCCC[C@H]3C(=O)O)cc2Cl)cccc1-c1ccc2c(c1)OCCO2 [Example 1017, (S)-1-(2-((3-(Aminomethyl)benzyl)oxy)-5-chloro-4-((3-(2,3-dihydrobenzo[b][1,4]dioxin-6-yl)-2-methylbenzyl)oxy)benzyl)piperidine-2-carboxylic acid, bis-trifluoroacetic acid salt]",7.69
8,"Cc1c(COc2cc(OCCCCN3CC[C@@H](O)C3)c(CN3CCCC[C@H]3C(=O)O)cc2Cl)cccc1-c1ccc2c(c1)OCCO2 [Example 1025, (S)-1-(5-Chloro-4-((3-(2,3-dihydrobenzo[b][1,4]dioxin-6-yl)-2-methylbenzyl)oxy)-2-(4-((R)-3-hydroxypyrrolidin-1-yl)butoxy)benzyl)piperidine-2-carboxylic acid]",7.81
9,"Cc1c(COc2cc(OCCN3CCS(=O)(=O)CC3)c(CN3CCCC[C@H]3C(=O)O)cc2Cl)cccc1-c1ccc2c(c1)OCCO2 [Example 1060, (S)-1-(5-chloro-4-((3-(2,3-dihydrobenzo[b][1,4]dioxin-6-yl)-2-methylbenzyl)oxy)-2-(2-(1,1-dioxidothiomorpholino)ethoxy)benzyl)piperidine-2-carboxylic acid]",8.04
10,"COC(=O)CCSc1cncc(COc2cc(OCc3cccc(-c4ccc5c(c4)OCCO5)c3C)c(Cl)cc2CN[C@@](C)(CO)C(=O)O)c1 [Example 1006, (S)-2-((5-Chloro-4-((3-(2,3-dihydrobenzo[b][1,4]dioxin-6-yl)-2-methylbenzyl)oxy)-2-((5-((3-methoxy-3-oxopropyl)thio)pyridin-3-yl)methoxy)benzyl)amino)-3-hydroxy-2-methylpropanoic acid]",8.96
11,"Cc1c(COc2cc(OCCCCN3CC[C@@H](O)C3)c(CNC(C)(CO)CO)cc2Cl)cccc1-c1ccc2c(c1)OCCO2 [Example 1027, (R)-2-((5-Chloro-4-((3-(2,3-dihydrobenzo[b][1,4]dioxin-6-yl)-2-methylbenzyl)oxy)-2-(4-(3-hydroxypyrrolidin-1-yl)butoxy)benzyl)amino)-2-methylpropane-1,3-diol]",8.39
12,"Cc1c(COc2cc(OCCN3CCC(O)(C(=O)O)CC3)c(CN3CCCC[C@H]3C(=O)O)cc2Cl)cccc1-c1ccc2c(c1)OCCO2 [Example 1054, (S)-1-(2-(2-(4-Carboxy-4-hydroxypiperidin-1-yl)ethoxy)-5-chloro-4-((3-(2,3-dihydrobenzo[b]1[1,4]dioxin-6-yl)-2-methylbenzyl)oxy)benzyl)piperidine-2-carboxylic acid]",8.74
13,"Cc1c(COc2cc(OC[C@H](C)CO)c(CN[C@](C)(CO)C(=O)O)cc2Cl)cccc1-c1ccc2c(c1)OCCO2 [Example 1032, (R)-2-((5-Chloro-4-((3-(2,3-dihydrobenzo[b][1,4]dioxin-6-yl)-2-methylbenzyl)oxy)-2-((R)-3-hydroxy-2-methylpropoxy)benzyl)amino)-3-hydroxy-2-methylpropanoic acid]",8.36
14,"Cc1cnc(COc2cc(OCc3cccc(-c4ccc5c(c4)OCCO5)c3C)c(Cl)cc2CN[C@@](C)(CO)C(=O)O)cn1 [Example 1002, (S)-2-((5-Chloro-4-((3-(2,3-dihydrobenzo[b][1,4]dioxin-6-yl)-2-methylbenzyl)oxy)-2-((5-methylpyrazin-2-yl)methoxy)benzyl)amino)-3-hydroxy-2-methylpropanoic acid]",8.17
15,"Cc1c(COc2cc(OCCN3CCCC(O)(C(F)(F)F)C3)c(CN[C@](C)(CO)C(=O)O)cc2Cl)cccc1-c1ccc2c(c1)OCCO2 (stereo partly drawn) [Example 1057, (2R)-2-((5-Chloro-4-((3-(2,3-dihydrobenzo[b][1,4]dioxin-6-yl)-2-methylbenzyl)oxy)-2-(2-(3-hydroxy-3-(trifluoromethyl)piperidin-1-yl)ethoxy)benzyl)amino)-3-hydroxy-2-methylpropanoic acid]",8.21
16,"Cc1c(COc2cc(OCc3cccc(-c4nc(CC(=O)O)cs4)c3)c(CN[C@@](C)(CO)C(=O)O)cc2Cl)cccc1-c1ccc2c(c1)OCCO2 [Example 1013, (S)-2-((2-((3-(4-(Carboxymethyl)thiazol-2-yl)benzyl)oxy)-5-chloro-4-((3-(2,3-dihydrobenzo[b][1,4]dioxin-6-yl)-2-methylbenzyl)oxy)benzyl)amino)-3-hydroxy-2-methylpropanoic acid]",7.14
17,"Cc1c(COc2cc(OCC3CCCN(C)C3)c(CN[C@@H](CO)C(=O)O)cc2Cl)cccc1-c1ccc2c(c1)OCCO2 (single isomer, unassigned) [Example 2005]",8.72
